System: synthetic oligosaccharides and native S. pneumoniae serotype 2 capsular polysaccharides printed on slides
Conditions: mice s.c., pooled sera
Description: On day 14 and 28 mice were received a booster injection with the same amount of antigen emulsified with 1:1 (v/v) alum. […] Mice were bled submandibular weekly using sterile single-use blood lancet. Control mice received only PBS and PBS in alum. The antibody responses were measured in both sera by glycan microarray and ELISA.
Preparation of microarrays slides: The CodeLink NHS activated glass slides (Surmodics) were spotted with synthetic glycans and native polysaccharides at two different concentration (100 μM and 200 μM) in printing buffer (50 mM sodium phosphate, pH 8.5) by using a S3 piezoelectric microarray printer (Scienion) equipped with a type 4 coated nozzle. The relative humidity of spotted chamber was constantly maintained at 65%. The spotted slides were incubated over night at room temperature in a humidifying chamber. […]
Microarray binding assays: The printed slides were blocked with PBS-BSA (1%) for 1 h at room temperature and washed 3 times with PBS. […] Slides were incubated with a fluorescence-labeled goat anti-mouse secondary antibodies (Life Technologies) diluted in 1% BSA in PBS (w/v) in a humid chamber for 1 h at room temperature, washed three times with PBST, rinsed once with deionized water and dried by centrifugation (300×g, 5 min) prior to scanning with a GenePix 4300A microarray scanner (Molecular Devices, Sunnyvale, Calif., USA). […]

C[C@@H]1O[C@H](O[C@H]2[C@H](O)[C@@H](O)[C@H](O[C@@H]3[C@@H](O)[C@H](C)O[C@@H](O[C@@H]4[C@@H](O)[C@H](C)O[C@@H](OCCCCCN)[C@@H]4O)[C@@H]3O[C@H]3O[C@H](CO[C@H]4O[C@H](C(=O)O)[C@@H](O)[C@H](O)[C@H]4O)[C@@H](O)[C@H](O)[C@H]3O)O[C@@H]2CO)[C@H](O)[C@H](O)[C@H]1O [hexasaccharide 2, 5-amino pentyl β-L-rhamnopyranosyl-(1→4)-β-D-glucopyranosyl-(1→3)-α-L-{α-D-glucopyranosyl uronate-(1→6)-α-D-glucopyranosyl-(1→2)}rhamnopyranosyl-(1→3)-α-L-rhamnopyranoside]
antibody response specific to hexasaccharide 2 / core glycan structures (immunogenicity) (3 μg sugar per dose with alum 1:1, boosts day 14 and 28, anti-mouse IgG): immunogenic in mice | cross-reactivity of raised antibodies with other fragments of hexasaccharide 2 printed on the slides (3 μg sugar per dose with alum 1:1): induces cross-reactive antibodies
